# Where “and” joins values, the source holds several entries; their conditions need not be identical. Equal values may be shown once.
# How the values were obtained:
# [1] = tested on: embryonic stages of S. digitata; assay: Intra cellular expression of CED-9 protein, flow cytometry; type: cell-based, Setaria digitata; conditions: 24 hr
# Protocol: Adult female filarial worms Setaria digitata were collected from the peritoneum of cattle, slaughtered at a nearby abattoir in sterile Hanks Balanced Salt Solution (HBSS) medium (Sigma H 2387-1L) and transported to the laboratory in a sterile container. The medium containing 1% glucose (Sigma G 7528), Penicillin 100 units/ml, Streptomycin 100 μg/ml (Sigma P 4333). And Amphotericin-B 0.25 μg/ml (Sigma A 2942) was buffered with NaHCO3 (Sigma S 5761). About 5 to 7 worms were taken in a petridish, washed three times in medium, dissected into small pieces in 10 ml of medium under sterile conditions and incubated at 37° C. for 30 minutes to allow the release of embryonic stages (eggs and microfilariae) into the medium. The embryonic stages were harvested into sterile 15 ml. centrifuge tubes and washed three times by centrifuging at 300 g for 10 minutes each with medium and the final pellet was suspended in 1 ml. of RPMI-1640 medium (Sigma R 8005) supplemented with 10% FBS (Sigma F 2442) The number of embryonic stages of S. digitata in the above preparation were counted using light microscope, and the suspension was taken in RPMI-1640 medium containing 10% FBS at 1×10^5 embryonic stages/ml. One ml. each was dispensed into individual wells of a 24 well tissue culture plate. One set of wells was taken as untreated control containing only medium with 10% FBS. […] Motility of the Mf was scored under an inverted microscope. After appropriate treatment and incubation, each set of the cultured embryonic stages of S. digitata were harvested from the 24 well tissue culture plate separately in 15 ml. sterile centrifuge tubes, washed with PBS twice and stained as per requirement following manufacturer's instructions as described below. This was followed by two times washing with PBS and final suspension of the stained embryonic stages was taken in 0.5 ml of sheath fluid (BD Biosciences 342003) before their acquisition in the flow cytometer (BD FACS Calibur, Becten and Dickinson, USA). Analysis was performed on 10,000-acquired events depicted as Dot Plots and Histogram Plots using Cellquest Pro soft ware. All plots were representative of at least 3 experiments. The distinctly clustered populations obtained consistently in the Dot plots for the intra uterine embryonic stages of S. digitata (FIG. 1 a) were gated for Mfs (R-1) and eggs (R-2 and R-3) and analyzed for different assays for apoptosis as described below. After in vitro culture for 24 hours with apoptosis inducing reagents the embryonic stages were harvested in 15 ml. sterile centrifuge tubes and fixed for 60 minutes at 0° C. in 1% paraformaldehyde (Sigma P 6148) in PBS. The suspension was washed first with PBS and then with 1× permeabilisation buffer (eBioscience 00-8333-56) and finally resuspended in 100 μl of 1× permeabilisation buffer at 1×10^5 embryonic stages per ml. The intracellular expression of CED-9 was scored by incubation of the fixed and permeabilised embryonic stages with primary goat antibodies—anti CED-9 (Santacruz sc-9202) followed by probing with PE conjugated secondary anti goat IgG-PE (Santacruz sc-3747) antibodies. Incubation of both primary and secondary antibodies (both 1/100 diluted) was done successively in 1× permeabilisation buffer (e Bioscience 00-8333-56) for 1 hr and 45 minutes respectively. The suspension of stained embryonic stages was then washed with PBS twice and finally reading was taken by flow cytometry or confocal microscopy.
# [2] = tested on: embryonic stages of S. digitata; assay: Fragmentation of chromosomal DNA, TUNEL staining; type: cell-based, Setaria digitata; conditions: for GMI (Geometric Mean Intensity) of Fluorescence, TUNEL Staining: 24 hr; for induction of DNA fragmentation (result in words): Mf stages and eggs, TUNEL assay
# Protocol: Adult female filarial worms Setaria digitata were collected from the peritoneum of cattle, slaughtered at a nearby abattoir in sterile Hanks Balanced Salt Solution (HBSS) medium (Sigma H 2387-1L) and transported to the laboratory in a sterile container. The medium containing 1% glucose (Sigma G 7528), Penicillin 100 units/ml, Streptomycin 100 μg/ml (Sigma P 4333). And Amphotericin-B 0.25 μg/ml (Sigma A 2942) was buffered with NaHCO3 (Sigma S 5761). About 5 to 7 worms were taken in a petridish, washed three times in medium, dissected into small pieces in 10 ml of medium under sterile conditions and incubated at 37° C. for 30 minutes to allow the release of embryonic stages (eggs and microfilariae) into the medium. The embryonic stages were harvested into sterile 15 ml. centrifuge tubes and washed three times by centrifuging at 300 g for 10 minutes each with medium and the final pellet was suspended in 1 ml. of RPMI-1640 medium (Sigma R 8005) supplemented with 10% FBS (Sigma F 2442) The number of embryonic stages of S. digitata in the above preparation were counted using light microscope, and the suspension was taken in RPMI-1640 medium containing 10% FBS at 1×10^5 embryonic stages/ml. One ml. each was dispensed into individual wells of a 24 well tissue culture plate. One set of wells was taken as untreated control containing only medium with 10% FBS. […] Motility of the Mf was scored under an inverted microscope. After appropriate treatment and incubation, each set of the cultured embryonic stages of S. digitata were harvested from the 24 well tissue culture plate separately in 15 ml. sterile centrifuge tubes, washed with PBS twice and stained as per requirement following manufacturer's instructions as described below. This was followed by two times washing with PBS and final suspension of the stained embryonic stages was taken in 0.5 ml of sheath fluid (BD Biosciences 342003) before their acquisition in the flow cytometer (BD FACS Calibur, Becten and Dickinson, USA). Analysis was performed on 10,000-acquired events depicted as Dot Plots and Histogram Plots using Cellquest Pro soft ware. All plots were representative of at least 3 experiments. The distinctly clustered populations obtained consistently in the Dot plots for the intra uterine embryonic stages of S. digitata (FIG. 1 a) were gated for Mfs (R-1) and eggs (R-2 and R-3) and analyzed for different assays for apoptosis as described below. Presence of fragmentation of chromosomal DNA was detected by TUNEL staining. Briefly, the treated embryonic stages were harvested, fixed with 1% Para formaldehyde followed by washing with PBS and stored in 70% ethanol at −20° C.
Structure (SMILES),"GMI (Geometric Mean Intensity) of Fluorescence, CED-9 Expression ([1]; Eggs, 10 μM)","GMI (Geometric Mean Intensity) of Fluorescence, CED-9 Expression ([1]; Microfilariae, 10 μM)","GMI (Geometric Mean Intensity) of Fluorescence, TUNEL Staining ([2]; Eggs, 10 μM)",induction of DNA fragmentation (result in words) [2],"GMI (Geometric Mean Intensity) of Fluorescence, TUNEL Staining ([2]; Microfilariae, 10 μM)",efficiency in induction of apoptosis (comparison in words) ([2]; Plumbagin compared with H2O2),"GMI (Geometric Mean Intensity) of Fluorescence, CED-9 Expression ([1]; Eggs, 1 μM)","GMI (Geometric Mean Intensity) of Fluorescence, CED-9 Expression ([1]; Microfilariae, 1 μM)","GMI (Geometric Mean Intensity) of Fluorescence, TUNEL Staining ([2]; Eggs, 1 μM)","GMI (Geometric Mean Intensity) of Fluorescence, TUNEL Staining ([2]; Microfilariae, 1 μM)"
OO [H2O2],115.67 and 123.32 and 113.26,15.66 and 17.26 and 16.13,70.85 and 71.36 and 72.56,dose dependent induction of DNA fragmentation,13.62 and 12.52 and 14.16,–,–,–,–,–
CC1=CC(=O)c2c(O)cccc2C1=O [Plumbagin],206.36 and 202.92 and 205.16,30.96 and 33.25 and 32.27,104.33 and 109.68 and 105.32,dose dependent induction of DNA fragmentation,40.65 and 38.97 and 45.76,more efficient than H2O2 in induction of apoptosis,–,–,–,–
CN[C@@H]1C[C@H]2O[C@@](C)([C@@H]1OC)n1c3ccccc3c3c4c(c5c6ccccc6n2c5c31)C(=O)NC4 [Staurosporine],–,–,–,–,–,–,106.36 and 109.16 and 107.34,10.32 and 9.56 and 11.02,65.77 and 60.33 and 71.25,10.67 and 10.02 and 12.15

# From patent US20110124523A1, “High Throughput Method for Detecting Apoptosis of Embryonic Stages of Metazoan Helminthic Parasites” (INSTITUTE OF LIFE SCIENCES, priority 2009, published 2011)
